Values after ≈ are worked out from the molar mass of the structure shown. “Also recorded” adds a separate entry of the source.
What was measured:
[1] = test system: cells involved in the inflammatory response; test: Cellular inflammatory response in transgenic larvae (LYZ:Red) after SVCV infection, treatment by microinjection; format: in vivo, Danio rerio; settings: microinjection 2 nl concomitant with SVCV, 2 hpi, vs control groups
Protocol: (§1) Anti-inflammatory activity studies of the compounds were carried out in wild type fish, determining the expression levels of the pro-inflammatory cytokines IL-1β and IL-6. Transgenic larvae with labeled fluorescent neutrophils (Tg(Mpx:GFP)i114) or fluorescent myeloid cells (Tg(LYZ:Red)) were also used to assess how different treatments affect the inflammatory response of these cells. The inflammatory stimulus used was both the virus itself, which causes activation of the inflammasome and death of macrophages by pyroptosis (Varela et al. J. Virol. 2016, 88, 12026), as well as an acute stimulus of inflammation generated by a wound in the tail. The migration of fluorescent leukocytes from these transgenic lines was studied by means of microscopy and image analysis.
In a first assay, the cellular response to inflammation was quantified in transgenic Danio rerio larvae (LYZ:Red) after an infection with SVCV treated or untreated (control) with the AG1 compounds (28 μM), AG3 (10 μM), AG4 (10 μM), AG5 (10μM) and EAp (10 μg/ml). The treatments were carried out by microinjection (2 nl in the duct of Cuvier) of the drugs in fish 3 days post-fertilization (5-10 fish/well), concomitantly administering the virus and the different compounds. […] At 2 h post-injection (2 hpi), the number of cells involved in the inflammatory response was determined.

IL-6 = IL-6 gene expression by qPCR in wild type larvae infected with SVCV, bath treatment; format: in vivo, Danio rerio; settings: 10 μM bath for 24 h, then SVCV injection, qPCR at 24 h, vs untreated control groups
Protocol: as §1
In a third and final assay, the gene expression of proinflammatory cytokines was determined in Danio rerio (wild type) larvae treated with the AG1 (5 μM), AG3 (5 μM), AG4 (10 μM), AG5 (10 μM) compounds and EAp (10 μg/ml), and subsequently infected with SVCV. The treatments were carried out in a bath for 24 h on fish 1 day post-fertilization (10 fish/well). The experiment was carried out in quadruplicate (n=4). On the second day post-fertilization each fish was injected (2 nl in the duct of Cuvier) 5×10^4 TCID50/mL of SVCV. At 24 h, the expression of IL-6 was determined by qPCR.

New Zealand rabbits [2] = test: Single intravenous dose toxicity (phase I, OECD 425); format: in vivo; settings: AG-5 in PBS (3 mg/ml)
Protocol: (§2) As part of the preclinical evaluation of toxicity, the purpose of this study was to define the MRD of AG-5, formulated as a solution in PBS (3 mg/ml), in a non-rodent mammalian species, that is, rabbit, under GLP and to provide data of toxicological interest.
(§3) To this end, a two-phase study was designed: i) in phase I, the product was administered intravenously in a single dose and following OECD guidelines 425, to a total of 4 New Zealand rabbits (2 males and 2 females) of about 2.5 kg and 12-13 weeks old, and the maximum tolerated dose (MTD) range was provisionally determined; ii) in phase II, the animals (a total of 4 New Zealand rabbits of about 2.5 kg and 12-13 weeks old) were given a daily intravenous administration for 7 days and the MRD that will serve as a reference (highest dose to be used) was confirmed.
(§4) The initial dose to be used in phase I was selected based on the data obtained by the laboratory after the administration of AG-5 in rats at a repeated dose of up to 30 mg/kg, for 7 days. In this study, the dose of 30 mg/kg was established as the MRD to be used in subsequent general toxicity studies. […] The dose to be tested in phase II was determined based on the results obtained in phase I, selecting a dose from the dose interval lower than that at which serious toxic effects would have been observed, with a maximum of 15 mg/kg/day as MFD, in application of the ICH M3(R2) guideline. The study considered the complete assessment of the symptoms, that is, intensity, time of onset and reversibility, the study of analytical (hematological and biochemical) parameters and the determination of the weight of toxicity target organs, to be fundamental.

[3] = Solubility of the product in PBS; format: physicochemical; settings: aqueous buffer
[4] = test system: Salmonella typhimurium strains TA98, TA100, TA102, TA1535 and TA1537; test: Ames test; format: cell-based
Protocol: The aim of the study was to characterize the possible genotoxic effect of the assay product AG-5 by means of the Ames test (Ames et al. Proc. Nat. Acad. Sci. USA 1973, 70, 783). To that end, it was determined in a study carried out under GLP whether AG-5 has the ability to produce gene mutations, either by substitution or by mismatch, in Salmonella typhimurium bacteria histidine (His-) auxotrophs.
The study was carried out with strains TA98, TA100, TA102, TA1535 and TA1537 in the presence and in the absence of metabolic activation (S9 mixture). The doses recommended by the OECD guidelines were tested: 100 mg/ml, that is, equivalent to 5000 μg/plate, and […] other lower concentrations (33.3; 11.1; 3.7 and 1.2 mg/ml). […] The results were negative in the 5 bacterial strains (TA98, TA100, TA102, TA1535 and TA1537) both in the presence and in the absence of metabolic activation.

Wistar rats [5] = test: Single intravenous dose toxicity (phase I, OECD 425); format: in vivo; settings: AG-5 in PBS (3 mg/ml)
Protocol: (§5) As part of the preclinical toxicity evaluation, the purpose of this study was to define the maximum repeated dose (MRD) of AG-5, formulated as a solution in PBS (3 mg/ml), in a mammalian rodent species under good laboratory practice (GLP) and to provide data of toxicological interest. To this end, a two-phase study was designed: i) in phase I, the product was administered intravenously in a single dose and following OECD guidelines 425 (OECD Guidelines for the testing of chemicals. Guidelines 425: Acute oral toxicity: up and down procedure. Adopted 3 Oct. 2008), to a total of 12 8-week old female Wistar rats by means of a dose escalation process (incremental factor 3.2), the maximum tolerated dose (MTD) was provisionally determined; ii) in phase II, the animals (a total of 8-week old Wistar rats, 15 males and 15 females) were given a daily intravenous administration for 7 days and the MRD was confirmed.
The initial dose to be used in phase I was selected from the sequence of doses included in OECD guidelines 425, that is, 5.5, 17.5 and 30 mg/kg of body weight. The doses to be tested in phase II were determined based on the results obtained in phase I, selecting 3 doses from the dose interval lower than that in which serious toxic effects would have been observed, that is, 15, 20 and 30 mg/kg/day, with 30 mg/kg being the maximum feasible dose (MFD), in application of the ICH M3(R2) guideline (ICH Harmonized Tripartite Guideline. Non-Clinical Safety Studies for the Conduct of Human Clinical Trials and Marketing Authorization for Pharmaceuticals M3 (R2). Current Step 5 version dated 11 Jun. 2009). The study considered the complete assessment of the symptoms, that is, intensity, time of onset and reversibility, the study of analytical (hematological and biochemical) parameters and the determination of the weight of toxicity target organs, to be fundamental.

New Zealand rabbits [6] = test: Repeated dose toxicity, daily intravenous administration for 7 days (phase II); format: in vivo; settings: AG-5 in PBS (3 mg/ml), intravenous daily for 7 days
Protocol: as §2, §3, §4

[7] = test system: migration of neutrophils to the wound; test: Acute inflammatory response produced by a tail wound, neutrophil migration in Tg(Mpx:GFP)i114 larvae, bath treatment; format: in vivo, Danio rerio; settings: 10 μM by bath, tail cut after 24 hours, neutrophils counted 24 hours after the wound
Protocol: as §1
In a second assay, the effect of the different compounds on an acute inflammatory response produced by a wound was analyzed. To that end, transgenic fish with fluorescent neutrophils (Tg(Mpx:GFP)i114) were used and their migration to the affected area was analyzed. The AG1 (5 μM), AG3 (5 μM), AG4 (10 μM), AG5 (10 μM) compounds and EAp (10 μg/ml) were administered by bath and after 24 hours the wound was made by cutting the end area of the tail. After 24 hours, neutrophils that migrated to the area of the wound were counted. […] FIG. 3.

Wistar rats [8] = test: Repeated dose toxicity, daily intravenous administration for 7 days (phase II); format: in vivo; settings: AG-5 in PBS (3 mg/ml)
Protocol: as §5
The initial dose to be used in phase I was selected from the sequence of doses included in OECD guidelines 425, that is, 5.5, 17.5 and 30 mg/kg of body weight. […]

Row | SMILES | cellular inflammatory response induced by the viral infection (number of cells involved in the inflammatory response) ([1]; 28 μM) | IL-6 production (gene expression) in infection by SVCV (IL-6) | LD50 estimated in rabbits (New Zealand rabbits [2]; intravenous single dose) | MTD level in rabbits in a single dose (New Zealand rabbits [2]; intravenous single dose) | lethality (New Zealand rabbits [2]; intravenous single dose 15 mg/kg, New Zealand rabbits) | associated signs of toxicity (New Zealand rabbits [2]; intravenous single dose 15 mg/kg, rabbits) | solubility [3] [mg/mL] | precipitation of the product or toxicity (preliminary dose test) ([4]; 100 mg/ml (5000 μg/plate) and lower concentrations (33.3; 11.1; 3.7 and 1.2 mg/ml)) | mutagenicity test (gene mutations) ([4]; 5 strains, in the presence and in the absence of metabolic activation (S9 mixture), up to 5000 μg/plate) | LD50 estimated in rats (Wistar rats [5]) | MTD level in rats in a single dose (Wistar rats [5]) | signs of toxicity related to the administration (Wistar rats [5]; all doses tested in phase I) | changes in analytical parameters, macroscopic alterations in abdominal and thoracic organs, absolute or relative weight of the organs (New Zealand rabbits [6]; 15 mg/kg, rabbit study) | mortality or alterations in the general symptoms (New Zealand rabbits [6]; 15 mg/kg, rabbit study) | MRD (maximum repeated dose) (New Zealand rabbits [6]; rabbits) [mg/kg] | cellular inflammatory response induced by the viral infection (number of cells involved in the inflammatory response) ([1]; 10 μM) | inflammatory response generated by the migration of neutrophils to the wound [7] | MRD (maximum repeated dose) (Wistar rats [8]; intravenous daily for 7 days) [mg/kg] | changes in analytical parameters, macroscopic alterations in abdominal and thoracic organs, absolute or relative weight of the organs (Wistar rats [8]; intravenous daily for 7 days, 15, 20 and 30 mg/kg)
1 | C=C1CCC2C(C)(CO)C(O)CCC2(C)C1CC=C1C(=O)OCC1O (stereo not shown) [AG1, 3-[2-[-decahydro-6-hydroxy-5-(hydroxy-methyl)-5,8a-dimethyl-2-methylene-1-naphthalenyl]ethylidene]dihydro-4-hydroxy-2(3H)-furanone, reference compound] | significantly reduce | – | – | – | – | – | – | – | – | – | – | – | – | – | – | – | – | – | –
2 | C=C1CC[C@@H]2[C@](C)(CO)[C@H](O)CC[C@@]2(C)[C@@H]1C[C@H](C1=CCOC1=O)S(=O)(=O)O [AG5, 14-deoxy-12(R)-sulfo-andrographolide] | – | significantly reduce | greater than 15 mg/kg of body weight | 15 mg/kg of body weight | did not produce lethality in any animal | No associated signs of toxicity were observed | 3 (≈ 7.24 mM) | No precipitation of the product or toxicity was observed | negative; also recorded: did not induce gene mutations | greater than 30 mg/kg of body weight | 30 mg/kg of body weight | nor did it produce signs of toxicity | No toxicologically relevant changes | did not produce mortality or alterations in the general symptoms | 15 | significantly reduce | significantly decreased | 30 | No toxicologically relevant changes

— US20230372289A1, “ANDROGRAPHOLIDE DERIVATIVE FOR USE IN THE TREATMENT OF INFLAMMATORY DISEASES ASSOCIATED WITH A CYTOKINE STORM” (CONSEJO SUPERIOR DE INVESTIGACIONES CIENTÍFICAS (CSIC), priority 2020, published 2023)
